Measurements reported in paper PMC9926475 (ACS chemical neuroscience, 2022).

molecular target: N-methyl-D-aspartate receptor (NMDAR); assay: not given; conditions: read-out: NMDAR binding affinity; ref [31]; cited from earlier work

Structure (SMILES) | Ki [µM]
N[C@]1(c2ccccc2Cl)CCC[C@@H](O)C1=O [(2S,6R)-HNK] | > 100

test system: mice; assay: not given; conditions: i.p.; ref [4]; cited from earlier work

Structure (SMILES) | Lowest dose reducing forced swim test immobility time [mg/kg]
N[C@]1(c2ccccc2Cl)CCC[C@H](O)C1=O [(2S,6S)-HNK, (2S,6S)-hydroxynorketamine] | 25

same assay, conditions: mice, 20 mg/kg, i.p.; ref [23]; cited from earlier work

Structure (SMILES) | Effect on forced swim test immobility time and measures of anhedonia following chronic stress
N[C@]1(c2ccccc2Cl)CCC[C@H](O)C1=O [(2S,6S)-HNK, (2S,6S)-hydroxynorketamine] | reduced forced swim test immobility time and measures of anhedonia

test system: not listed separately; assay: Pharmacokinetic studies in plasma and brain of mice after i.p. injection; format: in vivo, mouse; conditions: both sexes, i.p. 5 mg/kg

Structure (SMILES) | Brain to plasma AUC ratio | Plasma elimination half-life [min]
C[C@@H]1CC[C@@](N)(c2ccccc2Cl)C(=O)[C@@H]1O [(5R)-methyl-(2R,6R)-HNK, (5R)-methyl-(2R,6R)-hydroxynorketamine] | 0.4 | 49

same assay, conditions: both sexes, i.p. 5 mg/kg; 10 min was the earliest time point

Structure (SMILES) | Tmax brain [min] | Tmax plasma (time of observed maximal concentrations) [min]
C[C@@H]1CC[C@@](N)(c2ccccc2Cl)C(=O)[C@@H]1O [(5R)-methyl-(2R,6R)-HNK, (5R)-methyl-(2R,6R)-hydroxynorketamine] | 10 | 10

same assay, conditions: both sexes, i.p. 5 mg/kg; LLOQ 5.0 ng/ml

Structure (SMILES) | Brain level at 4 h post-treatment
N[C@]1(c2ccccc2Cl)CC[C@H](O)CC1=O [(2S,5S)-HNK] | below LLOQs

same assay, conditions: female CD-1 mice, i.p. 5 mg/kg, normalized to free base dose

Structure (SMILES) | Cmax (mean ± SEM) Brain [ng/g•mg/kg]
N[C@]1(c2ccccc2Cl)CC[C@H](O)CC1=O [(2S,5S)-HNK] | 129 ± 2.8
C[C@@H]1CC[C@@](N)(c2ccccc2Cl)C(=O)[C@@H]1O [(5R)-methyl-(2R,6R)-HNK, (5R)-methyl-(2R,6R)-hydroxynorketamine] | 352 ± 22.4
N[C@]1(c2ccccc2Cl)CCC[C@H](O)C1=O [(2S,6S)-HNK, (2S,6S)-hydroxynorketamine] | 993 ± 27.1
N[C@]1(c2ccccc2Cl)CCC[C@@H](O)C1=O [(2S,6R)-HNK] | 177 ± 19.8

same assay, conditions: female mice, i.p. 5 mg/kg

Structure (SMILES) | B:P ratio (brain to plasma AUC ratio) | t1/2 Brain (terminal half-life) [min] | t1/2 Plasma (terminal half-life) [min]
N[C@]1(c2ccccc2Cl)CC[C@H](O)CC1=O [(2S,5S)-HNK] | 1.3 | 17 | 34
C[C@@H]1CC[C@@](N)(c2ccccc2Cl)C(=O)[C@@H]1O [(5R)-methyl-(2R,6R)-HNK, (5R)-methyl-(2R,6R)-hydroxynorketamine] | 0.4 | 41 | 49
N[C@]1(c2ccccc2Cl)CCC[C@H](O)C1=O [(2S,6S)-HNK, (2S,6S)-hydroxynorketamine] | 1.2 | 44 | 46
N[C@]1(c2ccccc2Cl)CCC[C@@H](O)C1=O [(2S,6R)-HNK] | 1.4 | 45 | 47

same assay, conditions: from Table 1

Structure (SMILES) | Brain Cmax and AUC compared to equivalent dosing with (2R,6R)-HNK
N[C@]1(c2ccccc2Cl)CCC[C@@H](O)C1=O [(2S,6R)-HNK] | approximately three-fold lower

same assay, conditions: male CD-1 mice, i.p. 5 mg/kg, normalized to free base dose

Structure (SMILES) | Cmax (mean ± SEM) Brain [ng/g•mg/kg]
N[C@]1(c2ccccc2Cl)CC[C@H](O)CC1=O [(2S,5S)-HNK] | 138 ± 8.3
C[C@@H]1CC[C@@](N)(c2ccccc2Cl)C(=O)[C@@H]1O [(5R)-methyl-(2R,6R)-HNK, (5R)-methyl-(2R,6R)-hydroxynorketamine] | 324 ± 13.0
N[C@]1(c2ccccc2Cl)CCC[C@H](O)C1=O [(2S,6S)-HNK, (2S,6S)-hydroxynorketamine] | 712 ± 47.3
N[C@]1(c2ccccc2Cl)CCC[C@@H](O)C1=O [(2S,6R)-HNK] | 117 ± 30.6

same assay, conditions: male mice, equivalent doses

Structure (SMILES) | Cmax and AUC, fold greater than those of (2R,6R)-HNK
N[C@]1(c2ccccc2Cl)CCC[C@H](O)C1=O [(2S,6S)-HNK, (2S,6S)-hydroxynorketamine] | 2-3 fold

same assay, conditions: male mice, i.p. 5 mg/kg

Structure (SMILES) | B:P ratio (brain to plasma AUC ratio) | t1/2 Brain (terminal half-life) [min] | t1/2 Plasma (terminal half-life) [min]
N[C@]1(c2ccccc2Cl)CC[C@H](O)CC1=O [(2S,5S)-HNK] | 1.2 | 16 | 27
C[C@@H]1CC[C@@](N)(c2ccccc2Cl)C(=O)[C@@H]1O [(5R)-methyl-(2R,6R)-HNK, (5R)-methyl-(2R,6R)-hydroxynorketamine] | 0.4 | 48 | 49
N[C@]1(c2ccccc2Cl)CCC[C@H](O)C1=O [(2S,6S)-HNK, (2S,6S)-hydroxynorketamine] | 1.0 | 41 | 44
N[C@]1(c2ccccc2Cl)CCC[C@@H](O)C1=O [(2S,6R)-HNK] | 1.2 | 45 | 45

same assay, conditions: standard t-test; F female, M male, NS not statistically different

Structure (SMILES) | Sex-dependent difference: Brain Total exposure (AUC) | Sex-dependent difference: Plasma Total exposure (AUC)
C[C@@H]1CC[C@@](N)(c2ccccc2Cl)C(=O)[C@@H]1O [(5R)-methyl-(2R,6R)-HNK, (5R)-methyl-(2R,6R)-hydroxynorketamine] | M > F | M > F
N[C@]1(c2ccccc2Cl)CCC[C@H](O)C1=O [(2S,6S)-HNK, (2S,6S)-hydroxynorketamine] | F > M | F > M
N[C@]1(c2ccccc2Cl)CCC[C@@H](O)C1=O [(2S,6R)-HNK] | F > M | F > M

test system: not given; assay: not given; conditions: i.p.; ref [4]; cited from earlier work

Structure (SMILES) | Lowest dose reducing escape failures in the learned helplessness test [mg/kg]
N[C@]1(c2ccccc2Cl)CCC[C@H](O)C1=O [(2S,6S)-HNK, (2S,6S)-hydroxynorketamine] | 75

test system: male mice; assay: Forced swim test immobility time 24 h after i.p. treatment; format: in vivo, mouse; conditions: 24 h after injection

Structure (SMILES) | Minimal effective dose to reduce immobility time in the forced swim test [mg/kg]
C[C@@H]1CC[C@@](N)(c2ccccc2Cl)C(=O)[C@@H]1O [(5R)-methyl-(2R,6R)-HNK, (5R)-methyl-(2R,6R)-hydroxynorketamine] | 1
N[C@]1(c2ccccc2Cl)CCC[C@H](O)C1=O [(2S,6S)-HNK, (2S,6S)-hydroxynorketamine] | 30
N[C@]1(c2ccccc2Cl)CCC[C@@H](O)C1=O [(2S,6R)-HNK] | 3

same assay, conditions: 24 h after treatment

Structure (SMILES) | Doses at which immobility time was reduced relative to vehicle [mg/kg]
C[C@@H]1CC[C@@](N)(c2ccccc2Cl)C(=O)[C@@H]1O [(5R)-methyl-(2R,6R)-HNK, (5R)-methyl-(2R,6R)-hydroxynorketamine] | 1 to 10

same assay, conditions: tested range up to 100 mg/kg

Structure (SMILES) | Shape of dose response curve for forced swim test immobility
N[C@]1(c2ccccc2Cl)CCC[C@H](O)C1=O [(2S,6S)-HNK, (2S,6S)-hydroxynorketamine] | did not demonstrate U-shaped dose responses
N[C@]1(c2ccccc2Cl)CCC[C@@H](O)C1=O [(2S,6R)-HNK] | U-shaped dose response curves
